Laboratory results taken from patent US8338565B2, “Macrocyclic compounds for inhibition of tumor necrosis factor alpha” (Ensemble Therapeutics Corporation, priority 2008, dated 2012).
Numbered stars: 1 amine (or outer) side, 2 acyl side, 3 side chain; on linkers, the order of the positions; unused ones are H or OH. Bridge positions count the residues as written; N and C are the ends. Square brackets hold non-standard residues; d marks the D form. Peptide text beside a SMILES is read from it. Tartaroyl(2R,3R-(OAc)2) = CC(=O)O[C@@H](C(=O)[*:1])[C@@H](OC(C)=O)C(=O)[*:2]; Phe(4-CF3) = N[C@@H](Cc1ccc(C(F)(F)F)cc1)C(=O)O; dPhe(3-CF3) = N[C@H](Cc1cccc(C(F)(F)F)c1)C(=O)O; Phe(4-COOH) = N[C@@H](Cc1ccc(C(=O)O)cc1)C(=O)O; Bip = N[C@@H](Cc1ccc(-c2ccccc2)cc1)C(=O)O; dBip = N[C@H](Cc1ccc(-c2ccccc2)cc1)C(=O)O; dPhe(4-NH2) = Nc1ccc(C[C@@H](N)C(=O)O)cc1; Phe(4-Br) = N[C@@H](Cc1ccc(Br)cc1)C(=O)O; dPhe(4-Br) = N[C@H](Cc1ccc(Br)cc1)C(=O)O; Phe(4-NH2) = Nc1ccc(C[C@H](N)C(=O)O)cc1; d(hPhe) = N[C@H](CCc1ccccc1)C(=O)O; hPhe = N[C@@H](CCc1ccccc1)C(=O)O; 2Thi = N[C@@H](Cc1cccs1)C(=O)O; d2Thi = N[C@H](Cc1cccs1)C(=O)O; Suc = O=C(CCC(=O)[*:2])[*:1]; βAla = NCCC(=O)O

biological target: T1, TNFα / TNFα receptor (TNFα R1/Fc) (Homo sapiens, UniProt P01375); experiment: Inhibition of binding of TNFα to the TNFα receptor (plate ELISA competition); conditions: Activity (IC50, inhibition of TNFα binding to TNFα R1/Fc), Table 2
T1 construct: purchased R&D Systems
In short: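 Plates were coated with TNFα at 15 nM. Test compound and 8.33 nM receptor-Fc (PBST, 2% DMSO) were first mixed in solution for 30 min at room temperature, then transferred to the plates for another 30 min. Competition was read by absorbance at 450 nm after HRP anti-human IgG Fc detection with TMB.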

T1 sequence (P01375 77-233 limits assumed, species assumed): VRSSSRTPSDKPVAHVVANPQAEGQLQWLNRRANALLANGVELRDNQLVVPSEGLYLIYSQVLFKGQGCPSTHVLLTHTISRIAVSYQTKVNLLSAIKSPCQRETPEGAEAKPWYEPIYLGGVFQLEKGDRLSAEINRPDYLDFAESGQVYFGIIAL

| SMILES | IC50 [µM] |
| --- | --- |
| O=C1COc2ccc(cc2)C[C@H](C(=O)N[C@H](CCc2ccccc2)C(=O)O)NC(=O)[C@H](Cc2c[nH]c3ccccc23)NC(=O)[C@@H](Cc2ccc(-c3ccccc3)cc2)NC(=O)[C@H](Cc2ccncc2)N1 [Compound 740] | 10 to 30 |
| C[C@H](C(=O)O)N(C)C(=O)[C@@H]1Cc2ccc(cc2)OCC(=O)N[C@@H](Cc2cccs2)C(=O)N[C@H](Cc2ccc(-c3ccccc3)cc2)C(=O)N[C@@H](CCc2ccccc2)C(=O)N1 [Compound 576] | < 10 |

same assay, conditions: Table 2; read-out: Activity (IC50, inhibition of TNFα binding to TNFα R1/Fc)

| SMILES | IC50 [µM] |
| --- | --- |
| CC(=O)O[C@H]1C(=O)Nc2ccc(cc2)C[C@H](C(=O)O)NC(=O)[C@@H](Cc2ccccc2)NC(=O)[C@H](Cc2ccc(Br)cc2)NC(=O)[C@@H](Cc2cccs2)NC(=O)[C@@H]1OC(C)=O [Compound 232] ([d2Thi][Phe(4-Br)][dF][dPhe(4-NH2)]-OH; linker N-4 via Tartaroyl(2R,3R-(OAc)2)) | > 100 |
| COc1ccc(C[C@H]2NC(=O)CCC(=O)Nc3ccc(cc3)C[C@@H](C(=O)O)NC(=O)[C@@H](Cc3ccccc3)NC(=O)[C@H](Cc3ccc(C(F)(F)F)cc3)NC2=O)cc1 [Compound 162] ([dY](Me)[Phe(4-CF3)][dF][Phe(4-NH2)]-OH; linker N-4 via Suc) | > 100 |
| O=C(O)[C@H]1Cc2ccc(cc2)NC(=O)[C@H](O)[C@@H](O)C(=O)N[C@H](Cc2cccs2)C(=O)N[C@H](Cc2ccc(-c3ccccc3)cc2)C(=O)N[C@H](Cc2ccccc2)C(=O)N1 [Compound 276] | > 100 |
| N#Cc1ccc(C[C@H]2NC(=O)[C@H](O)[C@@H](O)C(=O)Nc3ccc(cc3)C[C@@H](C(=O)O)NC(=O)[C@@H](Cc3ccccc3)NC(=O)[C@H](Cc3ccc(-c4ccccc4)cc3)NC2=O)cc1 [Compound 260] | 30 to 100 |
| O=C1COc2ccc(cc2)C[C@@H](C(=O)O)NC(=O)[C@H](CCc2ccccc2)NC(=O)[C@@H](Cc2ccc(-c3ccccn3)cc2)NC(=O)[C@H](Cc2ccccn2)N1 [Compound 667] | > 100 |
| CC(=O)O[C@H]1C(=O)Nc2ccc(cc2)C[C@@H](C(=O)N[C@@H](Cc2ccccc2)C(=O)O)NC(=O)[C@H](Cc2ccccc2)NC(=O)[C@@H](Cc2ccc(Br)cc2)NC(=O)[C@H](Cc2cccs2)NC(=O)[C@@H]1OC(C)=O [Compound 418] ([2Thi][dPhe(4-Br)]F[Phe(4-NH2)]F-OH; linker N-4 via Tartaroyl(2R,3R-(OAc)2)) | > 100 |
| O=C1CCC(=O)N[C@H](Cc2c[nH]c3ccccc23)C(=O)N[C@@H](Cc2ccc(-c3ccccc3)cc2)C(=O)N[C@H](Cc2ccccc2)C(=O)N[C@H](C(=O)O)Cc2ccc(cc2)N1 [Compound 125] ([dW][Bip][dF][Phe(4-NH2)]-OH; linker N-4 via Suc) | > 100 |
| O=C(O)CNC(=O)[C@@H]1Cc2ccc(cc2)NC(=O)CCC(=O)N[C@H](Cc2cccs2)C(=O)N[C@@H](Cc2ccc(-c3ccccc3)cc2)C(=O)N[C@H](CCc2ccccc2)C(=O)N1 [Compound 453] ([d2Thi][Bip][d(hPhe)][Phe(4-NH2)]G-OH; linker N-4 via Suc) | > 100 |
| O=C1CCC(=O)N[C@H](Cc2cccc(C(F)(F)F)c2)C(=O)N[C@@H](Cc2ccc(C(F)(F)F)cc2)C(=O)N[C@H](Cc2ccccc2)C(=O)N[C@H](C(=O)O)Cc2ccc(cc2)N1 [Compound 166] ([dPhe(3-CF3)][Phe(4-CF3)][dF][Phe(4-NH2)]-OH; linker N-4 via Suc) | 30 to 100 |
| N=C(N)NCCC[C@H]1NC(=O)[C@H](Cc2ccc(-c3ccccc3)cc2)NC(=O)[C@@H](Cc2cccs2)NC(=O)CCC(=O)Nc2ccc(cc2)C[C@@H](C(=O)O)NC1=O [Compound 73] ([d2Thi][Bip][dR][Phe(4-NH2)]-OH; linker N-4 via Suc) | > 100 |
| O=C(O)CCCNC(=O)[C@H]1Cc2ccc(cc2)OCC(=O)N[C@@H](Cc2ccncc2)C(=O)N[C@H](Cc2ccc(-c3ccccc3)cc2)C(=O)N[C@@H](Cc2c[nH]c3ccccc23)C(=O)N1 [Compound 717] | 10 to 30 |
| CC(=O)O[C@H]1C(=O)Nc2ccc(cc2)C[C@H](C(=O)N[C@@H](Cc2ccccc2)C(=O)O)NC(=O)[C@H](CCc2ccccc2)NC(=O)[C@@H](Cc2ccc(-c3ccccc3)cc2)NC(=O)[C@H](Cc2cccs2)NC(=O)[C@@H]1OC(C)=O [Compound 411] ([2Thi][dBip][hPhe][dPhe(4-NH2)]F-OH; linker N-4 via Tartaroyl(2R,3R-(OAc)2)) | > 100 |
| O=C1N[C@H](Cc2ccccc2)C(=O)N[C@@H](C(=O)O)Cc2ccc(cc2)NC(=O)[C@H](O)[C@@H](O)C(=O)N[C@H](Cc2cccs2)C(=O)N[C@H]1Cc1ccc(-c2ccccc2)cc1 [Compound 184] | > 100 |

Continued, values first:

| IC50 [µM] | SMILES |
| --- | --- |
| 10 to 30 | O=C1CCC(=O)N[C@H](Cc2ccccc2)C(=O)N[C@@H](Cc2ccc(-c3ccccc3)cc2)C(=O)N[C@H](CCc2ccccc2)C(=O)N[C@H](C(=O)O)Cc2ccc(cc2)N1 [Compound 454] ([dF][Bip][d(hPhe)][Phe(4-NH2)]-OH; linker N-4 via Suc) |
| 10 to 30 | N#Cc1cccc(C[C@H]2NC(=O)[C@H](O)[C@@H](O)C(=O)Nc3ccc(cc3)C[C@@H](C(=O)O)NC(=O)[C@@H](Cc3ccccc3)NC(=O)[C@H](Cc3ccc(-c4ccccc4)cc3)NC2=O)c1 [Compound 316] |
| < 10 | O=C1COc2ccc(cc2)C[C@@H](C(=O)N2CCC(C(=O)O)CC2)NC(=O)[C@@H](CCc2ccccc2)NC(=O)[C@H](Cc2ccc(-c3ccccc3)cc2)NC(=O)[C@@H](Cc2cccs2)N1 [Compound 306] |
| < 10 | O=C1COc2ccc(cc2)C[C@@H](C(=O)O)NC(=O)[C@H](Cc2ccc(-c3ccncc3)cc2)NC(=O)[C@@H](Cc2ccc(-c3ccccc3)cc2)NC(=O)[C@H](Cc2ccncc2)N1 [Compound 645] |
| < 10 | O=C1CCC(=O)N[C@H](CCc2ccccc2)C(=O)N[C@@H](Cc2ccc(-c3ccccc3)cc2)C(=O)N[C@H](Cc2ccccc2)C(=O)N[C@H](C(=O)N[C@@H](CCc2ccccc2)C(=O)O)Cc2ccc(cc2)N1 [Compound 470] ([d(hPhe)][Bip][dF][Phe(4-NH2)][hPhe]-OH; linker N-4 via Suc) |
| 10 to 30 | O=C1COc2ccc(cc2)C[C@@H](C(=O)NCCS(=O)(=O)O)NC(=O)[C@H](CCc2ccccc2)NC(=O)[C@@H](Cc2ccc(-c3ccccc3)cc2)NC(=O)[C@H](Cc2ccc(-c3ccccc3)cc2)N1 [Compound 608] |
| 10 to 30 | O=C(OCc1ccccc1)c1ccc(-c2ccc(C[C@@H]3NC(=O)[C@@H](Cc4cccs4)NC(=O)[C@H](O)[C@@H](O)C(=O)Nc4ccc(cc4)C[C@@H](C(=O)O)NC(=O)[C@@H](Cc4ccccc4)NC3=O)cc2)cc1 [Compound 335] |
| < 10 | N#Cc1cccc(C[C@H]2CC(=O)N[C@H](C(=O)O)Cc3ccc(cc3)OCC(=O)N[C@@H](Cc3cccs3)C(=O)N[C@H](Cc3ccc(-c4ccccc4)cc3)C(=O)N2)c1 [Compound 641] |
| < 10 | O=C1COc2ccc(cc2)C[C@H](C(=O)N[C@H](CCc2ccccc2)C(=O)O)NC(=O)[C@H](Cc2ccccc2F)NC(=O)[C@@H](Cc2ccc(-c3ccccc3)cc2)NC(=O)[C@H](Cc2ccncc2)N1 [Compound 736] |
| < 10 | O=C1N[C@H](CCc2ccccc2)C(=O)N[C@@H](C(=O)O)Cc2ccc(cc2)NC(=O)[C@H](O)[C@@H](O)C(=O)N[C@H](Cc2cccs2)C(=O)N[C@H]1Cc1ccc(Br)cc1 [Compound 238] |
| < 10 | O=C1CCNC(=O)c2ccc(cc2)C[C@@H](C(=O)N[C@@H](Cc2ccccc2)C(=O)O)NC(=O)[C@@H](Cc2ccccc2)NC(=O)[C@H](Cc2ccc(-c3ccccc3)cc2)NC(=O)[C@@H](CCc2ccccc2)N1 [Compound 422] ([βAla][d(hPhe)][Bip][dF][Phe(4-COOH)]F-OH; lactam N-5) |
